Data taken from patent publication US7074447B2 (Laboratories Miret, S.A., priority 2001, dated 2006).

Experiments:
Format in all cases: cell-based
[1] = test system: Gram-Positive Bacteria, Gram-Negative Bacteria, Moulds and Yeasts; assay: activity of LAE against listed microorganisms; conditions: strains listed in b7
From the text: • Arthrobacter oxydans ATCC 8010 • Bacillus cereus var mycoide ATCC 11778 • Bacillus subtilis ATCC 6633 • Bacillus megaterium CECT 44 • Clostridium perfringens ATCC 77454 • Clostridium perfringens CECT 486 • Listeria monocytogenes ATCC 7644 • Staphylococcus aureus ATCC 6538 • Micrococcus luteus ATCC 9631 • Lactobacillus delbrueckii ssp lactis CECT 372 Gram-Negative Bacteria • Alcaligenes faecalis ATCC 8750 • Bordetella bronchiseptica ATCC 4617 • Citrobacter freundii ATCC 22636 • Citrobacter intermedium CECT 401 • Enterobacter aerogenes CECT 689 • Escherichia coli ATCC 8739 • Escherichia coli 0157H7 • Klebsiella pneumoniae var pneumoniae CECT 178 • Proteus mirabilis CECT 170 • Pseudomonas aeruginosa ATCC 9027 • Salmonella typhimurium ATCC16028 • Serratia marcenses CECT 274 • Mycobacterium phlei ATCC 41423 Moulds and Yeasts • Aspergillus niger ATCC14604 • Aureobasidium pullulans ATCC 9348 • Cladosporium cladosporioides ATCC 16022 • Gliocadium virens ATCC 4645 • Chaetonium globosum ATCC 6205 • Penicillium chrysogenum CECT 2802 • Penicillium funiculosum CECT 2914 • Penicillium camemberti CECT 2267 • Candida albicans ATCC 10231 • Rhodotorula rubra CECT 1158 • Saccharomyces cerevisiae ATCC 9763

[2] = test system: Enterobacter aerogenes (ATCC 13048); assay: minimum inhibition concentration and Kull synergy index of LAE / potassium sorbate; conditions: for SI, synergy index: <1 synergism, 1 addition, >1 antagonism
Method: (§1) The invention is now explained by a number of examples. In these examples LAE and sorbate alone and in a number of different combinations have been investigated against a number of bacterial preparations. For the analysis usually an internal method was used. Conditions and medium were Mueller Hinton broth (pH 7.4) or (pH 5.0) for bacteria, Sabouraud broth (pH 5.8) for yeast and Sabouraud medium for moulds. The interaction of the two components of the antimicrobial mixture is calculated according to the method described by Kull et al. (Kull […]. and Mayer R. L., Applied Microbiology, 1961; 6:538-541). According to this method the so-called synergy index is calculated according to the following formula: Synergy index […]. […] The same method was used as described for example 1. […] Again the effects of the components alone and in combination have been calculated using the same method as described at Example 1.

[3] = test system: Citrobacter intermedium (CECT 401); assay: as above; conditions: for SI, synergy index: <1 synergism, 1 addition, >1 antagonism
Method: as §1

[4] = test system: Escherichia coli (ATCC 8739); assay: as above; conditions: for SI, synergy index: <1 synergism, 1 addition, >1 antagonism
Method: as §1

[5] = test system: Cladosporium cladosporioides (ATCC 16022); assay: as above; conditions: for SI, synergy index: <1 synergism, 1 addition, >1 antagonism
Method: as §1

[6] = test system: Penicillium camemberti (CECT 2267); assay: as above; conditions: for SI, synergy index: <1 synergism, 1 addition, >1 antagonism
Method: as §1

[7] = test system: Staphylococcus aureus (ATCC 6538); assay: as above; conditions: for SI, synergy index: <1 synergism, 1 addition, >1 antagonism
Method: (§2) The invention is now explained by a number of examples. In these examples LAE and sorbate alone and in a number of different combinations have been investigated against a number of bacterial preparations. For the analysis usually an internal method was used. Conditions and medium were Mueller Hinton broth (pH 7.4) or (pH 5.0) for bacteria, Sabouraud broth (pH 5.8) for yeast and Sabouraud medium for moulds. The interaction of the two components of the antimicrobial mixture is calculated according to the method described by Kull et al. (Kull […]. and Mayer R. L., Applied Microbiology, 1961; 6:538-541). According to this method the so-called synergy index is calculated according to the following formula: Synergy index […]. […] Again the effects of the components alone and in combination have been calculated using the same method as described at Example 1.

[8] = test system: Bacillus megaterium (CECT 44); assay: as above; conditions: pH 7.4, aqueous solutions
Method: as §2

CCCCCCCCCCCC(=O)N[C@@H](CCCNC(=N)N)C(=O)OCC.Cl [LAE, L-arginine, N^α-lauroyl-ethylester monohydrochloride]
activity against the listed microorganisms [1]: activity
QLAE, minimum inhibition concentration of LAE as single antimicrobial ([2]; pH 5.0): 21.5
Qlae, minimum inhibition concentration of LAE in the mixture ([2]; pH 5.0): 21.5
Qlae/QLAE ([2]; pH 5.0): 1.00
Qs, minimum inhibition concentration of potassium sorbate in the mixture ([2]; pH 5.0): 0
Qs/QS ([2]; pH 5.0): 0.00
SI, synergy index ([2]; pH 5.0): 1.00
Qlae, minimum inhibition concentration of LAE in the mixture ([2]; pH 7.4, aqueous solutions): 68.2
Qs, minimum inhibition concentration of potassium sorbate in the mixture ([2]; pH 7.4, aqueous solutions): 0
Qs/QS ([2]; pH 7.4, aqueous solutions): 0.00
SI, synergy index ([2]; pH 7.4, aqueous solutions): 1.00
QLAE, minimum inhibition concentration of LAE as single antimicrobial ([3]; pH 5.0): 12.8
Qlae, minimum inhibition concentration of LAE in the mixture ([3]; pH 5.0): 12.8
Qlae/QLAE ([3]; pH 5.0): 1.00
Qs, minimum inhibition concentration of potassium sorbate in the mixture ([3]; pH 5.0): 0
Qs/QS ([3]; pH 5.0): 0.00
SI, synergy index ([3]; pH 5.0): 1.00
QLAE, minimum inhibition concentration of LAE as single antimicrobial ([3]; pH 7.4, aqueous solutions): 25.6
Qlae, minimum inhibition concentration of LAE in the mixture ([3]; pH 7.4, aqueous solutions): 25.6
Qlae/QLAE ([3]; pH 7.4, aqueous solutions): 1.00
Qs, minimum inhibition concentration of potassium sorbate in the mixture ([3]; pH 7.4, aqueous solutions): 0
Qs/QS ([3]; pH 7.4, aqueous solutions): 0.00
SI, synergy index ([3]; pH 7.4, aqueous solutions): 1.00
QLAE, minimum inhibition concentration of LAE as single antimicrobial ([4]; pH 5.0): 21.5
Qlae, minimum inhibition concentration of LAE in the mixture ([4]; pH 5.0): 21.5
Qlae/QLAE ([4]; pH 5.0): 1.00
Qs, minimum inhibition concentration of potassium sorbate in the mixture ([4]; pH 5.0): 0
Qs/QS ([4]; pH 5.0): 0.00
SI, synergy index ([4]; pH 5.0): 1.00
QLAE, minimum inhibition concentration of LAE as single antimicrobial ([4]; pH 7.4, aqueous solutions): 25.6
Qlae, minimum inhibition concentration of LAE in the mixture ([4]; pH 7.4, aqueous solutions): 25.6
Qlae/QLAE ([4]; pH 7.4, aqueous solutions): 1.00
Qs, minimum inhibition concentration of potassium sorbate in the mixture ([4]; pH 7.4, aqueous solutions): 0
Qs/QS ([4]; pH 7.4, aqueous solutions): 0.00
SI, synergy index ([4]; pH 7.4, aqueous solutions): 1.00
QLAE, minimum inhibition concentration of LAE as single antimicrobial ([5]; pH 5.0): 58.5
Qlae, minimum inhibition concentration of LAE in the mixture ([5]; pH 5.0): 58.5
Qlae/QLAE ([5]; pH 5.0): 1.00
Qs, minimum inhibition concentration of potassium sorbate in the mixture ([5]; pH 5.0): 0
Qs/QS ([5]; pH 5.0): 0.00
SI, synergy index ([5]; pH 5.0): 1.00
QLAE, minimum inhibition concentration of LAE as single antimicrobial ([5]; pH 7.4, aqueous solutions): 25.6
Qlae, minimum inhibition concentration of LAE in the mixture ([5]; pH 7.4, aqueous solutions): 25.6
Qlae/QLAE ([5]; pH 7.4, aqueous solutions): 1.00
Qs, minimum inhibition concentration of potassium sorbate in the mixture ([5]; pH 7.4, aqueous solutions): 0
Qs/QS ([5]; pH 7.4, aqueous solutions): 0.00
SI, synergy index ([5]; pH 7.4, aqueous solutions): 1.00
QLAE, minimum inhibition concentration of LAE as single antimicrobial ([6]; pH 5.0): 58.5
Qlae, minimum inhibition concentration of LAE in the mixture ([6]; pH 5.0): 58.5
Qlae/QLAE ([6]; pH 5.0): 1.00
Qs, minimum inhibition concentration of potassium sorbate in the mixture ([6]; pH 5.0): 0
Qs/QS ([6]; pH 5.0): 0.00
SI, synergy index ([6]; pH 5.0): 1.00
QLAE, minimum inhibition concentration of LAE as single antimicrobial ([6]; pH 7.4, aqueous solutions): 68.2
Qlae, minimum inhibition concentration of LAE in the mixture ([6]; pH 7.4, aqueous solutions): 68.2
Qlae/QLAE ([6]; pH 7.4, aqueous solutions): 1.00
Qs, minimum inhibition concentration of potassium sorbate in the mixture ([6]; pH 7.4, aqueous solutions): 0
Qs/QS ([6]; pH 7.4, aqueous solutions): 0.00
SI, synergy index ([6]; pH 7.4, aqueous solutions): 1.00
QLAE, minimum inhibition concentration of LAE as single antimicrobial ([7]; pH 5.0): 29.3
Qlae, minimum inhibition concentration of LAE in the mixture ([7]; pH 5.0): 29.3
Qlae/QLAE ([7]; pH 5.0): 1.00
Qs, minimum inhibition concentration of potassium sorbate in the mixture ([7]; pH 5.0): 0
Qs/QS ([7]; pH 5.0): 0.00
SI, synergy index ([7]; pH 5.0): 1.00
QLAE, minimum inhibition concentration of LAE as single antimicrobial ([7]; pH 7.4, aqueous solutions): 3.2
Qlae, minimum inhibition concentration of LAE in the mixture ([7]; pH 7.4, aqueous solutions): 3.2
Qlae/QLAE ([7]; pH 7.4, aqueous solutions): 1.0
Qs, minimum inhibition concentration of potassium sorbate in the mixture ([7]; pH 7.4, aqueous solutions): 0
Qs/QS ([7]; pH 7.4, aqueous solutions): 0.00
SI, synergy index ([7]; pH 7.4, aqueous solutions): 1.00
QLAE, minimum inhibition concentration of LAE as single antimicrobial [8]: 6.4
Qlae, minimum inhibition concentration of LAE in the mixture [8]: 6.4
Qlae/QLAE [8]: 1
Qs, minimum inhibition concentration of potassium sorbate in the mixture [8]: 0
Qs/QS [8]: 0.00
SI, synergy index ([8]; <1 synergism, 1 addition, >1 antagonism): 1.00
